According to US20250115872A1, “GENERATION OF BROWN ADIPOCYTES FROM HUMAN PLURIPOTENT STEM CELLS” (The Brigham and Women's Hospital, Inc., priority 2022, published 2025):

Tested on: iPSC-BAs
Test: Seahorse assay, oxygen consumption rate in iPSC-BAs
Type: cell-based, human
Protocol: FIGS. 8A-D: FIG. 8A—RT-qPCR analysis for UCP1 on 40 day old replated iPSC-derived adipogenic cultures treated with 10 μM forskolin or vehicle control DMSO treatment for 4 hours. Relative gene expression is shown as relative change to undifferentiated iPSC. Mean±SD, n=5, t-test, p<0.01. FIG. 8B—Measurement of glycerol released in culture medium 40 day old replated iPSC-derived adipogenic cultures treated with 10 μM forskolin or vehicle control DMSO treatment for 4 hours. Glycerol amount normalized using total protein amount. Mean±SD, n=4, t-test, p≤0.01. FIG. 8C—Measurement of fluorescent intensity of thermosensitive ERthermAC dye in iPSC derived precursors on day 20 of differentiation and brown adipocytes after 40 days of replating in response to 10 μM forskolin or vehicle control DMSO. Each data point represents Mean±SD, n=3, t-test, p=0.0009. FIG. 8D—Seahorse analysis to measure oxygen consumption rate in iPSC derived precursors on day 20 of differentiation and brown adipocytes after 40 days of replating in response to 1.5 μM oligomycin, 10 μM forskolin or vehicle control DMSO and 1 μM Rotenone and Antimycin (Rot/AA), respectively. Adipocytes or precursor cells were in XFe96 cell culture plates one week prior to the assay. […]
Agilent Seahorse XFe96 Analyzer was used to measure oxygen consumption in live iPSC-BAs and precursor cells following manufacturer's instructions. […] Basal respiration was measured 3 times in the assay medium. […] Cells were then treated with 10 μM Forskolin (Sigma-Aldrich, F6886) or DMSO (Sigma-Aldrich, D2650) and oxygen consumption rate (OCR) was measured for 70 minutes (12 measurements). […] Cells were automatically segmented using custom code in Fiji and number of DAPI and mCherry positive cells were quantified. […]
The process of thermogenesis is driven by the flow of protons through UCP1 in the mitochondrial inner membrane. To examine whether forskolin-induced thermogenesis in iPSC-BAs is coupled to proton leak in mitochondria, we measured oxygen consumption rate (OCR) with a Seahorse metabolic flux analyzer in 40 day-old replated cultures ([…]). […]

[1] = 1 μM Rotenone and Antimycin (Rot/AA), last step, electron transport chain block

| Molecule | oxygen consumption rate (OCR) (1.5 μM Oligomycin alone, versus basal respiration) | oxygen consumption rate (OCR) [1] |
| --- | --- | --- |
| CC[C@H]1/C=C/C=C/C[C@@H](C)[C@H](O)[C@@](C)(O)C(=O)[C@@H](C)[C@H](O)[C@@H](C)C(=O)[C@@H](C)[C@H](O)[C@@H](C)/C=C/C(=O)O[C@@H]2[C@H](C)[C@H](CC1)O[C@]1(CC[C@H](C)[C@H](C[C@@H](C)O)O1)[C@H]2C [Oligomycin] | the OCR in cells decreased |  |
| C=C(C)[C@H]1Cc2c(ccc3c2O[C@@H]2COc4cc(OC)c(OC)cc4[C@@H]2C3=O)O1 [Rotenone] |  | drop of OCR |
| Antimycin |  | drop of OCR |
